Results: PubChem BioAssay (NCI)
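Results reflect a 48-hour exposure of cells in 96-well plates to compound at five concentrations. The concentration for full growth arrest is given as TGI.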

Columns and labels:
Assay in all cases: NCI-60 cell line screen, 48 h
OVCAR-3 ovarian = tested on: OVCAR-3 ovarian
NCI-H460 lung = tested on: NCI-H460 lung
SNB-75 CNS = tested on: SNB-75 CNS
ACHN renal = tested on: ACHN renal
UO-31 renal = tested on: UO-31 renal
786-0 renal = tested on: 786-0 renal
NCI-H23 lung = tested on: NCI-H23 lung
U251 CNS = tested on: U251 CNS
LOX IMVI melanoma = tested on: LOX IMVI melanoma
K-562 leukemia = tested on: K-562 leukemia
SK-MEL-2 melanoma = tested on: SK-MEL-2 melanoma
RPMI-8226 leukemia = tested on: RPMI-8226 leukemia
HOP-92 NSCLC = tested on: HOP-92 NSCLC
SK-MEL-28 melanoma = tested on: SK-MEL-28 melanoma
HCT-116 colon = tested on: HCT-116 colon
HCT-15 colon = tested on: HCT-15 colon
SF-295 CNS = tested on: SF-295 CNS
NCI/ADR-RES ovarian = tested on: NCI/ADR-RES ovarian
OVCAR-5 ovarian = tested on: OVCAR-5 ovarian
A549 NSCLC = tested on: A549 NSCLC
UACC-62 melanoma = tested on: UACC-62 melanoma
HCC-2998 colon = tested on: HCC-2998 colon
HT29 colon = tested on: HT29 colon
IGROV1 ovarian = tested on: IGROV1 ovarian
SW-620 colon = tested on: SW-620 colon
NCI-H522 lung = tested on: NCI-H522 lung
NCI-H226 lung = tested on: NCI-H226 lung
T-47D breast = tested on: T-47D breast
OVCAR-8 ovarian = tested on: OVCAR-8 ovarian
EKVX NSCLC = tested on: EKVX NSCLC
MDA-MB-231 breast = tested on: MDA-MB-231 breast
PC-3 prostate = tested on: PC-3 prostate
MDA-MB-435 = tested on: MDA-MB-435
MCF7 breast = tested on: MCF7 breast
SF-268 CNS = tested on: SF-268 CNS
HS 578T breast = tested on: HS 578T breast
KM12 colon = tested on: KM12 colon
CCRF-CEM leukemia = tested on: CCRF-CEM leukemia
M14 melanoma = tested on: M14 melanoma
UACC-257 melanoma = tested on: UACC-257 melanoma
TK-10 renal = tested on: TK-10 renal
BT-549 breast = tested on: BT-549 breast
OVCAR-4 ovarian = tested on: OVCAR-4 ovarian
HL-60(TB) leukemia = tested on: HL-60(TB) leukemia
SK-MEL-5 melanoma = tested on: SK-MEL-5 melanoma
SF-539 CNS = tested on: SF-539 CNS
HOP-62 NSCLC = tested on: HOP-62 NSCLC
RXF 393 renal = tested on: RXF 393 renal
MALME-3M melanoma = tested on: MALME-3M melanoma
DU-145 prostate = tested on: DU-145 prostate
MOLT-4 leukemia = tested on: MOLT-4 leukemia
SNB-19 CNS = tested on: SNB-19 CNS
COLO 205 colon = tested on: COLO 205 colon
A498 renal = tested on: A498 renal

Measured: TGI

O=S1(=O)C(c2ccccc2)=C(O)c2ccccc21
> 100 µM: all assays above
